For one data set, the system named is rat. As to the kind of experiment: Turning rat test (unilateral 6-OHDA lesion of the medial forebrain bundle). It is filed as in vivo. The protocol:
Female rats weighing 150 g are anaesthetised with pentobarbital (50 mg kg^-1 i.p.) and fixed in a stereotaxic apparatus (David Kopf). A unilateral (right side) injection into the MFB (medial forebrain bundle) or 6-OHDA (6-hydroxy-dopamine), 3 μg as base, dissolved in 4 μl of Ringer solution containing 0.02% ascorbic acid, is carried out through a stainless-steel cannula (diameter 0.3 mm) connected to a microsyringe. The liquid is injected at a speed of 1 μl min^-1 by means of a high precision infusion pump. In order to reach the MFB (medial forebrain bundle), the following conditions are used: A=+3.8 mm, L (right)=0.9 mm, V=-3 mm according to the Atlas of Konig and Klippel.
After 3 weeks recovery period, the operated rats are injected with apomorphine, 1 mg kg^1- i.p.. Those animals showing a regular contralateral (i.e., away from the lesioned side) turning, recorded automatically during 1 hour in a rotometer, are selected for further experiments. At least one week is allowed between each injection of screening compounds. […]
The total number of ipsilateral or contralateral turns (full rotation around the vertical axes of the body) made by each rat, is automatically recorded over the time (usually 1 hour). 5 rats are injected for each dose and the mean of total turns per hour is determined.
A compound is said active, if it produces more than 100 turns/hour. […] The results are expressed as: […]

A further data set has as its system mouse. As to the kind of experiment: LD50 (mouse), acute toxicity. It is filed as in vivo.
Setting [1] is: vs d-amphetamine and d-methamphetamine (Table I).

Molecules are shown by their SMILES.

With `CCn1cc(C(=O)O)c(=O)cc1-c1ccc2ccccc2c1` [1-ethyl-1,4-dihydro-6-(2-naphthyl)-4-oxonicotinic acid], in the data set on rat (setting [1]), the “strength of action compared with d-amphetamine and d-methamphetamine” value is “about the same strength of action”. For the same molecule, the “activity compared with nomifensin” value in the data set on rat (vs nomifensin) is listed as “substantially superior to nomifensin”. Moreover, the “LD50 compared with d-amphetamine and d-methamphetamine” value in the data set on mouse (setting [1]) is on record as “substantially lower LD50”. Besides, in the data set with mouse (vs nomifensin), the “LD50 compared with nomifensin” value is given as “about the same LD50”.

Values taken from US4374261A, “1-Ethyl-1,4-dihydro-6-(2-naphthyl)-4-oxo-nicotinic acid and esters thereof” (Hoffmann-La Roche Inc., priority 1981, dated 1983).
